In ChEMBL document CHEMBL1122062, “Inhibitors of adenosine deaminase. Studies in combining high-affinity enzyme-binding structural units. erythro-1,6-Dihydro-6-(hydroxymethyl)-9-(2-hydroxy-3-nonyl)purine and erythro-9-(2-hydroxy-3-nonyl)purine” (J Med Chem, 1982):

Key:
[1] = target: T1, Adenosine deaminase (Bos taurus) (UniProt P56658)
T1 sequence (whole entry): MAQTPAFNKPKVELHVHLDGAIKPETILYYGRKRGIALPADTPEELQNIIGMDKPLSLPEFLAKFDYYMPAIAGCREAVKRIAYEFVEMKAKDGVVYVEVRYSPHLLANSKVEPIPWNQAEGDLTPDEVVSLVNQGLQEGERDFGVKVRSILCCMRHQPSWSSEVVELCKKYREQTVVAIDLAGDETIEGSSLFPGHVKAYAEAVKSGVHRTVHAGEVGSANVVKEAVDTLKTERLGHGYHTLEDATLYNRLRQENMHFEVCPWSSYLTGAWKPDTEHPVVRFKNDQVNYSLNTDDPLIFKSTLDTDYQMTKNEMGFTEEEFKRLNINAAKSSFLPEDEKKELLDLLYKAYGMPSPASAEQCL

Adenosine deaminase [2] = target: T2, Adenosine deaminase (Bos taurus, UniProt P56658); assay: Ability to inhibit calf intestinal adenosine deaminase (ADA).
T2 sequence (P56658 whole entry): T1 sequence (whole entry)

[3] = Upper limit of relative enzyme affinity of compound to the substrate.
Adenosine deaminase [4] = target: T2, Adenosine deaminase; assay: Ability to inhibit calf intestinal adenosine deaminase (ADA); No data

| REA [1] | Ki (Adenosine deaminase [2]) [nM] | Km/Ki [3] | Ki (Adenosine deaminase [4]) [nM] | SMILES |
| --- | --- | --- | --- | --- |
| 2.8e+06 | – | – | – | OC[C@H]1O[C@@H](n2cnc3c2N=CNC[C@H]3O)C[C@@H]1O |
| – | 680 | 36 | – | CCCCCCC(C(C)O)n1cnc2cncnc21 (stereo unspecified) |
| – | – | – | 1.3 | CCCCCC[C@@H]([C@@H](C)O)n1cnc2c(N)ncnc21 [EHNA] |
| – | – | 2.1 | 12000 | CCCCCCC(C(C)O)n1cnc2c1N=CNC2CO (stereo unspecified) |
